Test results from US20210386071A1, “ANTI-NON-ENVELOPED VIRUS AGENT AND COMPOSITION CONTAINING SAME, AND ANTI-VIRAL PRODUCT AND METHOD FOR PRODUCING SAME” (TOAGOSEI CO., LTD., priority 2018, published 2021).

Tested on: feline calicivirus
Assay: Antiviral activity value (Mv) by methods of JIS L 1922, plaque count measurement of virus infectivity
Description: The performance of each of the above antiviral agents was evaluated by applying methods shown in JIS L 1922 (antiviral property test method of fiber product), and an antiviral activity value (Mv) obtained was used to determine the antiviral property. […] Purified water was added to the antiviral agent so that its concentration was 0.1% by mass. Next, 100 μL of feline calicivirus solution having a virus infectivity of 1 to 5×10^7 PFU/mL was added to 900 μL of the above liquid, and a mixed liquid was allowed to stand at a temperature of 25° C. for 2 hours. Thereafter, the mixed liquid was recovered, and the recovered liquid was subjected to a plaque count measurement method to measure the virus infectivity. The virus infectivity was measured in the same manner as the test sample except that 900 μL of phosphate buffered saline (PBS) was used as a control sample instead of the test sample. The performance of the antiviral agent was evaluated by the antiviral activity value (Mv) obtained by the following formula. Mv=Log (virus infectivity of control sample)−Log (virus infectivity of test sample)

[Ca+2].[OH-].[OH-] [V3, calcium hydroxide]
Antiviral activity value Mv: 4.2 | antiviral properties (assessment in words): excellent antiviral properties
